Source: PubChem BioAssay (NCI)
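At the GI50, growth is halved. TGI: total growth inhibition.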

Key:
Assay in all cases: NCI tumour cell line growth inhibition, 384-well format
TK-10 renal = test system: TK-10 renal
HCT-15 colon = test system: HCT-15 colon
K-562 leukemia = test system: K-562 leukemia
KM12 colon = test system: KM12 colon
CAKI-1 renal = test system: CAKI-1 renal
BT-549 breast = test system: BT-549 breast
MALME-3M melanoma = test system: MALME-3M melanoma
MDA-MB-435 melanoma = test system: MDA-MB-435 melanoma
MOLT-4 leukemia = test system: MOLT-4 leukemia
U251 glioblastoma = test system: U251 glioblastoma
DU-145 prostate = test system: DU-145 prostate
ACHN renal = test system: ACHN renal
HCT-116 colon = test system: HCT-116 colon
HOP-62 NSCLC = test system: HOP-62 NSCLC
NCI-H23 lung = test system: NCI-H23 lung
PC-3 prostate = test system: PC-3 prostate
NCI-H522 lung = test system: NCI-H522 lung
HCC-2998 colon = test system: HCC-2998 colon
SK-MEL-2 melanoma = test system: SK-MEL-2 melanoma
OVCAR-4 ovarian = test system: OVCAR-4 ovarian
CCRF-CEM leukemia = test system: CCRF-CEM leukemia
LOX IMVI melanoma = test system: LOX IMVI melanoma
RPMI-8226 leukemia = test system: RPMI-8226 leukemia
UACC-257 melanoma = test system: UACC-257 melanoma
SR leukemia = test system: SR leukemia
EKVX NSCLC = test system: EKVX NSCLC
NCI-H460 NSCLC = test system: NCI-H460 NSCLC
SNB-19 CNS = test system: SNB-19 CNS
SK-OV-3 ovarian = test system: SK-OV-3 ovarian
SK-MEL-28 melanoma = test system: SK-MEL-28 melanoma
OVCAR-5 ovarian = test system: OVCAR-5 ovarian
NCI-H322M lung = test system: NCI-H322M lung
A498 renal = test system: A498 renal
T-47D breast = test system: T-47D breast
IGROV1 ovarian = test system: IGROV1 ovarian
SF-295 CNS = test system: SF-295 CNS
786-0 renal = test system: 786-0 renal
RXF 393 renal = test system: RXF 393 renal
HL-60(TB) leukemia = test system: HL-60(TB) leukemia
A549 NSCLC = test system: A549 NSCLC
HOP-92 NSCLC = test system: HOP-92 NSCLC
SN12C renal = test system: SN12C renal
MDA-MB-468 breast = test system: MDA-MB-468 breast
OVCAR-3 ovarian = test system: OVCAR-3 ovarian
NCI-H226 lung = test system: NCI-H226 lung
SNB-75 CNS = test system: SNB-75 CNS
HS 578T breast = test system: HS 578T breast

CC[C@H](Nc1ncnc2nc[nH]c12)c1nc2cccc(F)c2c(=O)n1-c1ccccc1
GI50 (TK-10 renal): > 38.3 µM | TGI (TK-10 renal): > 94.5 µM | GI50 (HCT-15 colon): 30.1 µM | TGI (HCT-15 colon): > 100 µM | GI50 (K-562 leukemia): 24 µM | TGI (K-562 leukemia): 82.9 µM | GI50 (KM12 colon): 24.2 µM | TGI (KM12 colon): > 100 µM | GI50 (CAKI-1 renal): 7.37 µM | TGI (CAKI-1 renal): > 67.4 µM | GI50 (BT-549 breast): 4.22 µM | TGI (BT-549 breast): 48.1 µM | GI50 (MALME-3M melanoma): 20.8 µM | TGI (MALME-3M melanoma): > 89.1 µM | GI50 (MDA-MB-435 melanoma): 25.6 µM | TGI (MDA-MB-435 melanoma): 57.1 µM | GI50 (MOLT-4 leukemia): 10 µM | TGI (MOLT-4 leukemia): 22.1 µM | GI50 (U251 glioblastoma): > 71.4 µM | TGI (U251 glioblastoma): > 100 µM | GI50 (DU-145 prostate): 45 µM | TGI (DU-145 prostate): > 100 µM | GI50 (ACHN renal): 13.2 µM | TGI (ACHN renal): > 100 µM | GI50 (HCT-116 colon): 39.9 µM | TGI (HCT-116 colon): > 100 µM | GI50 (HOP-62 NSCLC): > 59.5 µM | TGI (HOP-62 NSCLC): > 100 µM | GI50 (NCI-H23 lung): 38.2 µM | TGI (NCI-H23 lung): > 100 µM | GI50 (PC-3 prostate): 6.18 µM | TGI (PC-3 prostate): > 100 µM | GI50 (NCI-H522 lung): 26.1 µM | TGI (NCI-H522 lung): > 100 µM | GI50 (HCC-2998 colon): 36.7 µM | TGI (HCC-2998 colon): > 93.5 µM | GI50 (SK-MEL-2 melanoma): 24 µM | TGI (SK-MEL-2 melanoma): 70.8 µM | GI50 (OVCAR-4 ovarian): 64.6 µM | TGI (OVCAR-4 ovarian): > 100 µM | GI50 (CCRF-CEM leukemia): 5.93 µM | TGI (CCRF-CEM leukemia): 25.8 µM | GI50 (LOX IMVI melanoma): 43.2 µM | TGI (LOX IMVI melanoma): > 100 µM | GI50 (RPMI-8226 leukemia): 16.7 µM | TGI (RPMI-8226 leukemia): 36.5 µM | GI50 (UACC-257 melanoma): > 74.9 µM | TGI (UACC-257 melanoma): > 100 µM | GI50 (SR leukemia): 16.2 µM | TGI (SR leukemia): 32.6 µM | GI50 (EKVX NSCLC): 22.4 µM | TGI (EKVX NSCLC): > 84.8 µM | GI50 (NCI-H460 NSCLC): 38 µM | TGI (NCI-H460 NSCLC): > 100 µM | GI50 (SNB-19 CNS): > 74.4 µM | TGI (SNB-19 CNS): > 100 µM | GI50 (SK-OV-3 ovarian): 30.6 µM | TGI (SK-OV-3 ovarian): > 83.3 µM | GI50 (SK-MEL-28 melanoma): 27.5 µM | TGI (SK-MEL-28 melanoma): > 100 µM | GI50 (OVCAR-5 ovarian): > 57.4 µM | TGI (OVCAR-5 ovarian): > 100 µM | GI50 (NCI-H322M lung): 34.7 µM | TGI (NCI-H322M lung): > 100 µM | GI50 (A498 renal): 4.38 µM | TGI (A498 renal): 23 µM | GI50 (T-47D breast): 5.22 µM | TGI (T-47D breast): 56.4 µM | GI50 (IGROV1 ovarian): 4.31 µM | TGI (IGROV1 ovarian): 14.9 µM | GI50 (SF-295 CNS): 23.1 µM | TGI (SF-295 CNS): > 76.3 µM | GI50 ([…]-0 renal): 10.6 µM | TGI (786-0 renal): > 100 µM | GI50 (RXF 393 renal): 1.4 µM | TGI (RXF 393 renal): 9.61 µM | GI50 (HL-60(TB) leukemia): 4.61 µM | TGI (HL-60(TB) leukemia): 17.9 µM | GI50 (A549 NSCLC): 32 µM | TGI (A549 NSCLC): > 100 µM | GI50 (HOP-92 NSCLC): 12.2 µM | TGI (HOP-92 NSCLC): 98.5 µM | GI50 (SN12C renal): 16.6 µM | TGI (SN12C renal): > 100 µM | GI50 (MDA-MB-468 breast): 4.58 µM | TGI (MDA-MB-468 breast): 15.9 µM | GI50 (OVCAR-3 ovarian): 8.68 µM | TGI (OVCAR-3 ovarian): > 73.4 µM | GI50 (NCI-H226 lung): 37 µM | TGI (NCI-H226 lung): > 100 µM | GI50 (SNB-75 CNS): 0.783 µM | TGI (SNB-75 CNS): 6.15 µM | GI50 (HS 578T breast): 12.5 µM | TGI (HS 578T breast): 50.3 µM

CC(C)Nc1cc(-c2c[nH]c(C(=O)N[C@H](CO)c3cccc(Cl)c3)c2)c(Cl)cn1
GI50 (TK-10 renal): 2.6 µM | TGI (TK-10 renal): 17.3 µM | GI50 (HCT-15 colon): 4.5 µM | TGI (HCT-15 colon): 17.9 µM | GI50 (K-562 leukemia): 1.45 µM | TGI (K-562 leukemia): 13.4 µM | GI50 (KM12 colon): 0.547 µM | TGI (KM12 colon): 12.8 µM | GI50 (CAKI-1 renal): 1.04 µM | TGI (CAKI-1 renal): 16.5 µM | GI50 (BT-549 breast): 3.37 µM | TGI (BT-549 breast): 15.4 µM | GI50 (MALME-3M melanoma): 0.0197 µM | TGI (MALME-3M melanoma): 0.076 µM | GI50 (MDA-MB-435 melanoma): 0.314 µM | TGI (MDA-MB-435 melanoma): 13.4 µM | GI50 (MOLT-4 leukemia): 1.66 µM | TGI (MOLT-4 leukemia): 6.58 µM | GI50 (U251 glioblastoma): 2 µM | TGI (U251 glioblastoma): 15.8 µM | GI50 (DU-145 prostate): 9.92 µM | TGI (DU-145 prostate): 24.3 µM | GI50 (ACHN renal): 2.95 µM | TGI (ACHN renal): 16.3 µM | GI50 (HCT-116 colon): 0.231 µM | TGI (HCT-116 colon): 3.11 µM | GI50 (HOP-62 NSCLC): 3.19 µM | TGI (HOP-62 NSCLC): 19.4 µM | GI50 (NCI-H23 lung): 0.132 µM | TGI (NCI-H23 lung): 4.12 µM | GI50 (PC-3 prostate): 7.81 µM | TGI (PC-3 prostate): 21.3 µM | GI50 (NCI-H522 lung): 1.8 µM | TGI (NCI-H522 lung): 13.2 µM | GI50 (HCC-2998 colon): 0.0896 µM | TGI (HCC-2998 colon): 0.309 µM | GI50 (SK-MEL-2 melanoma): 0.186 µM | TGI (SK-MEL-2 melanoma): 0.467 µM | GI50 (OVCAR-4 ovarian): 11.6 µM | TGI (OVCAR-4 ovarian): 24 µM | GI50 (CCRF-CEM leukemia): 2.89 µM | TGI (CCRF-CEM leukemia): 12.5 µM | GI50 (LOX IMVI melanoma): 0.184 µM | TGI (LOX IMVI melanoma): 0.883 µM | GI50 (RPMI-8226 leukemia): 0.366 µM | TGI (RPMI-8226 leukemia): 1.88 µM | GI50 (UACC-257 melanoma): 0.144 µM | TGI (UACC-257 melanoma): 0.498 µM | GI50 (SR leukemia): 1.01 µM | TGI (SR leukemia): 2.21 µM | GI50 (EKVX NSCLC): 3.46 µM | TGI (EKVX NSCLC): 17.3 µM | GI50 (NCI-H460 NSCLC): 0.758 µM | TGI (NCI-H460 NSCLC): 13.6 µM | GI50 (SNB-19 CNS): 9.24 µM | TGI (SNB-19 CNS): 22.5 µM | GI50 (SK-OV-3 ovarian): 6.86 µM | TGI (SK-OV-3 ovarian): 19.6 µM | GI50 (SK-MEL-28 melanoma): 0.12 µM | TGI (SK-MEL-28 melanoma): 0.509 µM | GI50 (OVCAR-5 ovarian): 0.567 µM | TGI (OVCAR-5 ovarian): 16.2 µM | GI50 (NCI-H322M lung): 2.88 µM | TGI (NCI-H322M lung): 19.4 µM | GI50 (A498 renal): 1.76 µM | TGI (A498 renal): 12.7 µM | GI50 (T-47D breast): 9.03 µM | TGI (T-47D breast): 21.9 µM | GI50 (IGROV1 ovarian): 0.496 µM | TGI (IGROV1 ovarian): 7.2 µM | GI50 (SF-295 CNS): 7.68 µM | TGI (SF-295 CNS): 20.2 µM | GI50 ([…]-0 renal): 3.58 µM | TGI (786-0 renal): 17.1 µM | GI50 (RXF 393 renal): 4.14 µM | TGI (RXF 393 renal): 16.5 µM | GI50 (HL-60(TB) leukemia): 0.184 µM | TGI (HL-60(TB) leukemia): 1.17 µM | GI50 (A549 NSCLC): 0.641 µM | TGI (A549 NSCLC): 13.4 µM | GI50 (HOP-92 NSCLC): 0.445 µM | TGI (HOP-92 NSCLC): 2.13 µM | GI50 (SN12C renal): 6.15 µM | TGI (SN12C renal): 21.4 µM | GI50 (MDA-MB-468 breast): 6.13 µM | TGI (MDA-MB-468 breast): 16.1 µM | GI50 (OVCAR-3 ovarian): 4.95 µM | TGI (OVCAR-3 ovarian): 19.6 µM | GI50 (NCI-H226 lung): 1.34 µM | TGI (NCI-H226 lung): 16.6 µM | GI50 (SNB-75 CNS): 13.4 µM | TGI (SNB-75 CNS): 26.2 µM | GI50 (HS 578T breast): 10.5 µM | TGI (HS 578T breast): 22.3 µM
